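Growth conditions: 96-well plates. Treatment: test compound, 48 hours, 5 concentrations. Analysis: linear interpolation between bracketing concentrations; unreached endpoints set to highest concentration. GI50 is the concentration that inhibits growth by half.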 The source made the active and inactive calls. No stated cut-off is given here; in the data, active = GI50 up to about 1.1 µM and inactive = higher.
Experiments:
Experiment in all cases: NCI tumour cell line growth inhibition, 48 h
[1] = tested on: UO-31
[2] = tested on: UACC-62
[3] = tested on: NCI-H522
[4] = tested on: OVCAR-4
[5] = tested on: 786-0
[6] = tested on: EKVX
[7] = tested on: ACHN
[8] = tested on: SN12C
[9] = tested on: A498
[10] = tested on: SK-MEL-5
[11] = tested on: HT-29
[12] = tested on: SNB-75
[13] = tested on: K562
[14] = tested on: RPMI-8226
[15] = tested on: NCI-H226
[16] = tested on: COLO 205
[17] = tested on: A549
[18] = tested on: U-251
[19] = tested on: SK-MEL-28
[20] = tested on: SNB-19
[21] = tested on: HCT-15
[22] = tested on: SR
[23] = tested on: M14
[24] = tested on: MOLT-4
[25] = tested on: HL-60
[26] = tested on: OVCAR-8
[27] = tested on: SW-620
[28] = tested on: HCT-116
[29] = tested on: CCRF-CEM
[30] = tested on: SF-268
[31] = tested on: HOP-62
[32] = tested on: SK-OV-3
[33] = tested on: LXFL 529
[34] = tested on: SF-295
[35] = tested on: DLD-1
[36] = tested on: DMS-273
[37] = tested on: M19-MEL
[38] = tested on: KM-20L2
[39] = tested on: NCI-H23
[40] = tested on: Malme-3M
[41] = tested on: UACC-257
[42] = tested on: HOP-18
[43] = tested on: DMS-114
[44] = tested on: SF-539
[45] = tested on: SNB-78
[46] = tested on: RXF 393
[47] = tested on: IGROV-1
[48] = tested on: HCC 2998
[49] = tested on: HOP-92
[50] = tested on: OVCAR-3
[51] = tested on: XF498
[52] = tested on: MCF7
[53] = tested on: NCI-H460
[54] = tested on: KM12
[55] = tested on: NCI/ADR-RES
[56] = tested on: LOX IMVI
[57] = tested on: SK-MEL-2
[58] = tested on: OVCAR-5
[59] = tested on: CAKI-1
[60] = tested on: TK-10

Measured: GI50

CCCCCCCC(=O)OC[C@H](C[As](=O)(O)O)OC(=O)CCCCCCC
inactive: [1] 2.27 µM | [2] 9.29 µM | [3] 1.42 µM | [4] 12.2 µM | [5] 13.4 µM | [6] 21.1 µM | [7] 10.7 µM | [8] 10.1 µM | [9] 11.5 µM | [10] 13.6 µM | [11] 12.2 µM | [12] 11.1 µM | [13] 12.7 µM | [14] 5.36 µM | [15] 5.9 µM | [16] 15.1 µM | [17] 2.86 µM | [18] 4.95 µM | [19] 13.3 µM | [20] 14.3 µM | [22] 3.05 µM | [23] 12.3 µM | [24] 2.15 µM | [25] 3.97 µM | [26] 13.4 µM | [27] 7.26 µM | [28] 5.24 µM | [29] 1.95 µM | [30] 1.82 µM | [31] 18.7 µM | [32] 15 µM | [33] 9.55 µM | [34] 14.4 µM | [35] 14.1 µM | [36] 11.3 µM | [37] 13.3 µM | [38] 16.6 µM | [39] 14.3 µM | [40] 12.7 µM | [41] 12.8 µM | [42] 22 µM | [43] 6.84 µM | [44] 5.13 µM | [45] 14 µM | [46] 3.92 µM | [47] 3.57 µM | [48] 14.6 µM | [49] 14.4 µM
10.5 µM: [21]

O=C(/C=C\c1ccc(/C=C/C(=O)Nc2cccc(C3=NCCCN3)c2)cc1)Nc1cccc(C2=NCCCN2)c1
> 100 µM: [21]
inactive: [1] > 100 µM | [50] > 100 µM | [3] 42.8 µM | [4] > 100 µM | [8] > 100 µM | [9] > 74.3 µM | [52] 16.3 µM | [10] 30.8 µM | [11] > 100 µM | [12] > 69.3 µM | [13] > 100 µM | [14] 33.9 µM | [16] 4.06 µM | [53] > 100 µM | [17] > 100 µM | [54] > 100 µM | [18] > 100 µM | [19] > 100 µM | [20] > 100 µM | [55] > 100 µM | [24] > 100 µM | [25] > 100 µM | [26] > 100 µM | [27] 25.4 µM | [28] > 100 µM | [29] > 100 µM | [31] 65.8 µM | [32] > 100 µM | [56] > 100 µM | [57] > 62.8 µM | [34] > 100 µM | [35] > 100 µM | [36] > 100 µM | [37] > 100 µM | [38] > 56.4 µM | [39] > 100 µM | [40] > 100 µM | [41] > 100 µM | [42] > 100 µM | [58] > 100 µM | [44] > 100 µM | [45] > 100 µM | [46] > 100 µM | [47] > 100 µM | [48] 69.2 µM | [49] > 100 µM
active: [51] < 0.01 µM

NCCNCCNCc1c2ccccc2c(CNCCNCCN)c2ccccc12
inactive: [1] > 100 µM | [50] > 100 µM | [2] 34 µM | [4] 41.6 µM | [5] 38.6 µM | [6] > 100 µM | [7] > 100 µM | [8] 58.2 µM | [59] > 100 µM | [51] 72.9 µM | [10] > 100 µM | [11] 40.2 µM | [13] 25.4 µM | [14] 29.6 µM | [15] 50.1 µM | [16] 52.1 µM | [53] 31.2 µM | [17] 79.3 µM | [54] 40.4 µM | [18] 51.6 µM | [19] > 100 µM | [22] 31.3 µM | [23] > 100 µM | [24] 36.5 µM | [25] 46.1 µM | [26] 47.9 µM | [27] 90.4 µM | [28] 38 µM | [29] 78.5 µM | [30] 69.5 µM | [31] 60.3 µM | [32] > 100 µM | [56] 70.6 µM | [33] 57.8 µM | [57] > 100 µM | [34] 41.4 µM | [35] > 100 µM | [37] 59 µM | [38] 41.4 µM | [39] > 100 µM | [60] > 100 µM | [40] 84.9 µM | [41] > 100 µM | [42] 49.8 µM | [58] > 100 µM | [43] 46.9 µM | [44] 37.5 µM | [45] 98.6 µM | [46] 40.9 µM | [47] 75 µM | [48] 54 µM | [49] 22.3 µM
> 100 µM: [21]

Fc1ccc(/N=C2C=C/C(=N\c3ccc(F)cc3)c3ccccc3\2)cc1
inactive: [1] > 100 µM | [50] > 100 µM | [2] 9.89 µM | [3] > 100 µM | [5] > 100 µM | [6] 33.9 µM | [7] > 100 µM | [8] > 100 µM | [9] > 100 µM | [51] > 100 µM | [10] > 100 µM | [11] > 100 µM | [12] > 100 µM | [13] > 100 µM | [14] > 100 µM | [15] 77.4 µM | [16] > 100 µM | [53] 93.1 µM | [17] > 100 µM | [18] > 100 µM | [19] > 100 µM | [20] 70.5 µM | [22] > 100 µM | [23] > 100 µM | [24] > 100 µM | [25] > 100 µM | [26] > 100 µM | [27] > 100 µM | [28] > 100 µM | [29] > 100 µM | [30] 40.2 µM | [31] 31.4 µM | [32] > 100 µM | [56] > 100 µM | [33] > 100 µM | [57] > 100 µM | [34] 51.4 µM | [35] > 100 µM | [36] > 100 µM | [37] > 100 µM | [38] > 100 µM | [39] 72.1 µM | [60] > 100 µM | [40] > 100 µM | [41] > 100 µM | [42] > 100 µM | [58] > 100 µM | [44] 54.1 µM | [45] > 100 µM | [46] 92.3 µM | [47] > 100 µM | [48] > 100 µM | [49] 19.4 µM
> 100 µM: [21]

Clc1cccc(C2N3CCCCC3[C@@H]3c4[nH]c5ccccc5c4CCN23)c1 (some centres undefined)
inactive: [1] 24.9 µM | [50] 34.8 µM | [2] 15.6 µM | [4] 33.5 µM | [5] 32.6 µM | [6] 56 µM | [7] 24.2 µM | [8] 13.6 µM | [59] 45 µM | [9] 31.2 µM | [51] 20.9 µM | [10] 18 µM | [11] 18.2 µM | [12] 32.8 µM | [13] 23.1 µM | [14] 29 µM | [53] 22.7 µM | [17] 43.9 µM | [18] 29.2 µM | [19] 22.8 µM | [20] 55 µM | [23] 27.9 µM | [24] 23.1 µM | [25] 18.7 µM | [26] 41.4 µM | [27] 44.4 µM | [28] 17.1 µM | [29] 19.4 µM | [30] 33.1 µM | [31] 46.9 µM | [32] 46.9 µM | [57] 19.8 µM | [34] 51.1 µM | [35] 30.3 µM | [36] 30.1 µM | [37] 20.1 µM | [38] 56.8 µM | [39] 22 µM | [60] 40.8 µM | [40] 18.3 µM | [41] 30.5 µM | [42] > 100 µM | [58] 21 µM | [43] 20.6 µM | [44] 21.1 µM | [46] 27 µM | [47] 50.8 µM | [48] 31.9 µM | [49] 62.5 µM
48.2 µM: [21]

Reference: ChEMBL document CHEMBL1201862, “PubChem BioAssay data set” (2004)
